Experimental data published in patent publication US9464291B2, “Methods and compositions for the treatment of cancer” (University of South Alabama, priority 2012, dated 2016).

How the values were obtained:
[1] = system: OPN, MMP9, Cathepsin K (CTSK); experiment: OPN, MMP9 and CTSK expression by osteoclasts; format: cell-based, murine; conditions: DM supplemented with cyclopamine
Text: Quantitative RT-PCR (qRT-PCR)-cDNA was generated using High Capacity Reverse Transcriptase Kit (Applied Biosystems, Foster City, Calif.). […] All reactions were done in triplicate.

[2] = system: OPN; experiment: Secreted OPN protein, immunoblot of conditioned medium, MDA-MB-435; format: cell-based, human; conditions: 10 μM and 20 μM cyclopamine
Procedure: Stable vector only and non-targeting (scrambled control) transfectants were also generated. Stable transfectants were selected on medium supplemented with 500 μg/ml Geneticin (Invitrogen). The four GLI1-knocked down clones chosen were based on the extent of GLI1 knockdown and were termed KO1, KO2, KO3, and KO4. The expression of OPN was restored in the KO1 cells by transfecting with pcDNA3.1-OPN. A corresponding vector-only transfectant was also generated. Transfectants were selected on medium containing Geneticin (500 μg/ml) and hygromycin (750 μg/ml). Serum-free conditioned medium harvested from approximately 3.0×10^6 cells after 24 hr was assayed for OPN by immunoblotting.
Western Blotting Analysis—Whole cell lysates were collected in Nonidet P-40 buffer (150 mM NaCl, 50 mM Tris, 1% Nonidet P-40). Isolation of cytosolic and nuclear fractions was done as previously reported (15). Total protein (30 μg) was resolved by SDS-PAGE gel and transferred to polyvinylidene difluoride membranes. […] Secreted OPN was assessed by loading an equal quantity of protein from the serum-free conditioned medium. […]

[3] = system: OPN; experiment: OPN expression in pre-osteoclastic RAW264.7 cells; format: cell-based, murine
Procedure: Western Blotting Analysis—Whole cell lysates were collected in NP-40 buffer (150 mM NaCl, 50 mM Tris, 1% NP-40). Total protein (30 μg) was resolved by SDS-PAGE gel and transferred to PVDF membranes. Membranes were immunoblotted overnight at 4° C. with antibodies to either SHH (Santacruz, Calif., USA) or IHH (Santacruz). Equal loading was confirmed with anti-β-tubulin (Cell Signaling, Danvers, Mass.). To assess OPN expression upon SHH treatment, […] were grown in 6-well plates in the presence of SHH. After 24 hours the cells were lysed in NP-40 buffer and 30 μg of each experimental group assessed by immunoblotting. To assess for the expression of OPN, MMP9 and CTSK, at the end of Day 6 of differentiation, all the different experimental groups were kept in serum free medium for 24 hrs and both, the conditioned media and whole cell lysates were collected and immunoblotted using antibodies to either anti-mouse OPN (Millipore, Bedford, Mass.), or CTSK (SantaCruz Biotech). Equal loading was confirmed with anti-β-actin (Sigma) antibody. Secreted MMP9 (Santa Cruz Biotech) was assessed by loading equal quantity of protein from the serum-free conditioned medium. […] Detection and quantification of proteins was done using Fuji LAS 3000 apparatus and Multigauge V3.1 software (Fujifilm, Valhalla, N.Y.). Band intensities were measured in arbitrary Units (AU). […]
Luciferase Assay—Cells were co-transfected with the OPN promoter construct, pGL3-OPNB and pSV-β-galactosidase (Promega) (Das, S., et al. (2009) J Biol Chem 284, 22888-22897). […] Readings were normalized to β-galactosidase. […]
Quantitative RT-PCR (qRT-PCR)-cDNA was generated using High Capacity Reverse Transcriptase Kit (Applied Biosystems, Foster City, Calif.). […] Following the experimental regime as described herein (for Osteoclast differentiation/activity) RNA was isolated using Trizol (Invitrogen) and assessed as describere herein. […]

CC1=C2C[C@H]3[C@@H](CC=C4C[C@@H](O)CC[C@@]43C)[C@@H]2CC[C@]12O[C@@H]1C[C@H](C)CN[C@H]1[C@H]2C [cyclopamine]
expression of OPN, MMP9 and CTSK by the osteoclasts [1]: significantly reduces the expression of OPN, MMP9 and CTSK | OPN protein in the secretome [2]: decreased levels of OPN protein

SHH: recombinant Sonic hedgehog ligand (R & D Systems)
OPN protein levels ([3]; 24 hours post SHH): increased protein levels of OPN | OPN promoter activity ([3]; 24 hours post-SHH): increase in the activity of the OPN promoter | OPN mRNA levels ([3]; recombinant SHH): dose-dependent significant (p<0.0001) increase in OPN mRNA levels
